“Also recorded” adds a separate entry of the source.
Legend:
[1] = tested on: cytoplasmic calcium levels in U251 cells; test: Cytoplasmic calcium imaging (Fura-2/AM); type: cell-based, human; settings: 100 μmol/L of each drug, Fura-2/AM loaded cells
Experimental: (A) U251 cells were treated with DMC or various coxibs and NSAIDs, and changes in intracellular calcium levels were recorded as described in Materials & Methods. […] Arrows indicate timepoint of drug addition. […] Essentially similar results were also obtained with the LN229 cell line.
The cells were loaded by incubating them with […] Fura-2/AM (Invitrogen) for 30 min at room temperature in external solution containing 138 mmol/L NaCl, 5.6 mmol/L KCl, 1.2 mmol/L MgCl2, 2.6 mmol/L CaCl2, 10 mmol/L HEPES, and 4 mmol/L glucose (pH 7.4). After loading, the cells were rinsed and transferred to the imaging setup. The cells were treated with individual drugs for 10 s, whereas fluorescence was elicited with the excitation wavelength alternating between 350 and 380 nm, using a Polychromator V (TILL Photonics GmbH, Grafelfing, Germany) to provide illumination via a Zeiss Axiovert 100 microscope with a Zeiss Fluar 40 oil objective (Carl Zeiss, Jena, Germany). Images were captured using a Cascade 512B CCD camera (Photometrics, Tucson, Ariz.) controlled with MetaFluor software (Molecular Devices, Sunnyvale, Calif.) at 0.5 Hz acquisition frequency. Ratios of the images obtained at 350 and 380 nm excitation were used to show changes in the cytoplasmic calcium concentration, according to the principles developed by Grynkiewicz et al. (31).

[2] = tested on: U251 glioblastoma cells; test: MTT assay, U251; type: cell-based, human; settings: U251, 48 hours, concentrations of up to 100 μmol/L
Experimental: U251 glioblastoma cells were treated with different drugs, and various parameters of cell growth and cell death were comparatively analyzed. As controls, cells remained either non-treated (Co) or were treated with the solvent DMSO alone. (FIG. 8A) Cells were treated with 30 or 50 μM DMC for 48 hours and the effects on cell growth/survival and on cell death were determined by various assays. […] Below the three panels, the expression levels of the ER stress indicators CHOP, GRP78, and caspase 4 at the end of the 48 hour drug treatment is shown, as determined by Western blot analysis with specific antibodies (actin served as a loading control. (FIG. 8B) Cells were treated with various concentrations of different drugs for 48 hours, as indicated, and cell death was measured with the cell death ELISA kit. (FIG. 8C) Cells were treated with DMC or various coxibs and traditional NSAIDs for 48 hours, as indicated, and cell growth and survival was determined with the conventional MTT assay (control, non-treated cells were set at 100%). MTT assays were performed in 96-well plates with the use of 3.0-8.0×10^3 cells per well as described in detail elsewhere (34). In parallel, the expression levels of CHOP and GRP78 protein were determined by Western blot analysis. […]
3-(4,5-Dimethylthiazol-2-yl)-2,5-diphenyltetrazolium bromide (MTT) assays were performed in 96-well plates with the use of 3.0×10^3 to 8.0×10^3 cells per well as described in detail elsewhere (19).

[3] = tested on: U251 glioblastoma cells; test: Cell death ELISA, U251; type: cell-based, human; settings: U251, 48 hours, concentrations of up to 100 μmol/L
Experimental: U251 glioblastoma cells were treated with different drugs, and various parameters of cell growth and cell death were comparatively analyzed. As controls, cells remained either non-treated (Co) or were treated with the solvent DMSO alone. (FIG. 8A) Cells were treated with 30 or 50 μM DMC for 48 hours and the effects on cell growth/survival and on cell death were determined by various assays. […] Below the three panels, the expression levels of the ER stress indicators CHOP, GRP78, and caspase 4 at the end of the 48 hour drug treatment is shown, as determined by Western blot analysis with specific antibodies (actin served as a loading control. (FIG. 8B) Cells were treated with various concentrations of different drugs for 48 hours, as indicated, and cell death was measured with the cell death ELISA kit. (FIG. 8C) Cells were treated with DMC or various coxibs and traditional NSAIDs for 48 hours, as indicated, and cell growth and survival was determined with the conventional MTT assay (control, non-treated cells were set at 100%). MTT assays were performed in 96-well plates with the use of 3.0-8.0×10^3 cells per well as described in detail elsewhere (34). In parallel, the expression levels of CHOP and GRP78 protein were determined by Western blot analysis.
Apoptosis in cell cultures in vitro was determined by using the Cell Death Detection ELISA kit (Roche Diagnostics, Indianapolis, Ind.) according to the manufacturer's instructions. This immunoassay specifically detects the histone region (H1, H2A, H2B, H3, and H4) of mononucleosomes and oligonucleosomes that are released during apoptosis. Ninety-six-well plates were seeded with 1,000 cells per well and read at 405 nm in a Microplate Autoreader (Model EL 311 SX; Bio-Tek Instruments, Inc., Winooski, Vt.).

[4] = tested on: CHOP, GRP78, caspase 4 in U251 glioblastoma cells; test: Western blot of ER stress indicators in U251 cells; type: cell-based, human; settings: for CHOP expression, time kinetics: U251, 50 μmol/L, 4 h up to 24 h; for increase in CHOP or GRP78 protein, concentration dependence: U251, 15 hours, concentrations up to 75 or 100 μmol/L
Experimental: U251 glioblastoma cells were cultured in the presence of 1 μM thapsigargin (Tg) or 60 μM DMC for various times, as indicated. Total cell lysates were prepared and analyzed by Western blot with specific antibodies to the ER stress proteins GRP78, CHOP, and caspase 4 (Casp 4). Actin was used as a loading control.
Shown are (A) time kinetics at 50 μM of each drug, and (B) concentration dependence after 15 hours of incubation.
Shown are (FIG. 7A) time kinetics at 50 μM of each drug, and (FIG. 7B), concentration dependence after 15 hours of incubation.
U251 glioblastoma cells were cultured for 24 hours in the presence of increasing concentrations of (A) bortezomib (BZM) or (B) DMC. Total cell lysates were analyzed by Western blot with specific antibodies to ubiquitin, GRP78, CHOP, and caspase 4. Actin was used as a loading control.
Total cell lysates were prepared by lysis of cells with radioimmunoprecipitation assay buffer (28), and protein concentrations were determined using the bicinchoninic acid protein assay reagent (Pierce, Rockford, Ill.). For Western blot analysis, 50 Ag of each sample were processed as described (29). The primary antibodies were purchased from Cell Signaling Technologies (Beverly, Mass.), Cayman Chemical (Ann Arbor, Mich.), or Santa Cruz Biotechnology, Inc. (Santa Cruz, Calif.) and used according to the manufacturer's recommendations. The secondary antibodies were coupled to horseradish peroxidase and detected by chemiluminescence using the SuperSignal West substrate from Pierce. All immunoblots were repeated at least once to confirm the results.
Total cell lysates were prepared and analyzed by Western blot analysis as described earlier (19). Immunohistochemical analysis of protein expression in tumor tissues was performed with the use of the Vectastain avidin-biotin complex method kit (Vector Laboratories) as described previously (32). The primary antibodies were purchased from Cell Signaling Technology or Santa Cruz Biotechnology, Inc. and used according to the manufacturers' recommendations. All immunoblots and stainings were repeated at least once to confirm the results.

[5] = tested on: U87 glioblastoma tumors; test: Tumor growth in xenograft nude mouse model; type: in vivo, nude mice; settings: daily chow for DMC, 40 mg/kg for rofecoxib, n=5
Experimental: Once palpable tumors had formed, the animals received daily chow supplemented with DMC, rofecoxib, or no drug. Tumor size was determined every three days. Shown is the average (mean±SD) tumor volume in each group (n=5). Asterisks (**): p<0.01 between control and DMC-treated animals on day 42.

[6] = tested on: CHOP protein in U87 glioblastoma tumor tissue; test: Immunohistochemical staining for CHOP in xenograft tumor tissue; type: in vivo, nude mice; settings: U87 xenograft
Description: In all cases, representative sections are shown.
Immunohistochemical analysis of protein expression in tumor tissues was done with the use of the Vectastain avidin-biotin complex method kit (Vector Laboratories, Burlingame, Calif.) according to the manufacturer's instructions. This procedure uses biotinylated secondary antibodies and a preformed avidin: biotinylated enzyme complex that has been termed the avidin-biotin complex method technique. As the primary antibody, we used anti-CHOP antibody (Santa Cruz Biotechnology) diluted 1:100 in 2% normal goat blocking serum.

[7] = tested on: U87 glioblastoma tumors; test: TUNEL assay of xenograft tumor tissue; settings: U87 xenograft, short-term drug treatment
[8] = tested on: human glioblastoma cells; test: Induction of apoptosis in human glioblastoma cells (FIG. 19); type: cell-based
Description: In the figure, DMC stands for 4-[5-(2,5-dimethylphenyl)-3-(trifluoromethyl)-1H-pyrazol-1-yl]benzenesulfonamide; DBrC stands for 4-[5-(2,5-dibromophenyl)-3-(trifluoromethyl)-1H-pyrazol-1-yl]benzenesulfonamide; and DTF3C stands for 4-[5-(2,5-ditrifluoromethylphenyl)-3-(trifluoromethyl)-1H-pyrazol-1-yl]benzenesulfonamide.

[9] = tested on: Tumor-associated Brain Endothelial Cells (TuBEC); test: Trypan blue exclusion, tumor-associated brain endothelial cells; type: cell-based
Experimental: After drug treatment the cells were incubated for another 12 days in the absence of drug, in order to determine their long-term survival; at that time cytotoxicity was evaluated using the trypan blue exclusion technique. Results are presented as number of viable cells per group.
Tumor-associated Brain Endothelial Cells (TuBEC) were treated with TMZ (300 uM) and 20 uM DMC for 48 hours. The drugs were removed and cells were incubated for another 12 days; at that time cytotoxicity was evaluated using the trypan blue exclusion technique. Results are presented as number of viable cells per group.

Row | SMILES | elevation of cytoplasmic calcium levels [1] | detectable effect on cell growth and survival (MTT) [2] | induction of cell death/apoptosis (cell death ELISA) [3] | also measured
1 | CC(C(=O)O)c1ccc(-c2ccccc2)c(F)c1 (stereo not shown) [flurbiprofen] | none | none | did not induce apoptosis | –
2 | COc1ccc2c(c1)c(CC(=O)O)c(C)n2C(=O)c1ccc(Cl)cc1 [indomethacin] | none | none | did not induce apoptosis | –
3 | CS(=O)(=O)c1ccc(C2=C(c3ccccc3)C(=O)OC2)cc1 [rofecoxib, 4-(4′-methylsulfonylphenyl)-3-phenyl-2-(5H)-furanone] | none | none | did not induce apoptosis | CHOP expression, time kinetics [4]: neither rofecoxib nor valdecoxib at the same concentration resulted in any detectable CHOP expression; increase in CHOP or GRP78 protein, concentration dependence [4]: neither rofecoxib nor valdecoxib was able to stimulate any detectable increase; tumor growth on longer-term therapy [5]: not; CHOP staining of tumor tissues ([6]; 30-180 mg/kg per day for 50 h, DMC and celecoxib already at lowest dosages): consistently negative; CHOP protein expression in tumor tissue ([6]; animals fed drug for 50 h): no such increase was observed; apoptosis in the tumor tissue [7]: did not display elevated levels of apoptosis
4 | C/C=C(/C)C(=O)O[C@H]1C(C)=C2[C@H]([C@@H]1OC(=O)CCCCCCC)[C@@](C)(OC(C)=O)C[C@H](OC(=O)CCC)[C@@]1(O)[C@H]2OC(=O)[C@@]1(C)O [thapsigargin] | – | – | – | time at which activation (cleavage) of caspase-4 was first noted ([4]; U251, 1 μM thapsigargin or 60 μM DMC): ~24 h; CHOP and GRP78 expression levels ([4]; U251, 1 μM thapsigargin or 60 μM DMC, prominent increase at 6 h and thereafter): substantially elevated
5 | CC1=C(CC(=O)O)c2cc(F)ccc2/C1=C\c1ccc([S+](C)[O-])cc1 (stereo not shown) [sulindac] | none | none | did not induce apoptosis | –
6 | NS(=O)(=O)c1ccc(-n2nc(C(F)(F)F)cc2-c2cc(C(F)(F)F)ccc2C(F)(F)F)cc1 [DTF3C, 4-[5-(2,5-ditrifluoromethylphenyl)-3-(trifluoromethyl)-1H-pyrazol-1-yl]benzenesulfonamide] | – | – | – | relative ability to induce apoptosis / cell killing effect compared to DMC [8]: surprisingly potent cell killing effect; also recorded: most potent compound
7 | Cn1nnc2c(C(N)=O)ncn2c1=O [Temozolomide] | – | – | – | cytotoxicity on tumor-associated brain endothelial cells [9]: little cytotoxicity
8 | Cc1onc(-c2ccccc2)c1-c1ccc(S(N)(=O)=O)cc1 [valdecoxib, 4-[5-Methyl-3-phenylisoxazol-4-yl]-benzenesulfonamide] | none | none | did not induce apoptosis | CHOP expression, time kinetics [4]: neither rofecoxib nor valdecoxib at the same concentration resulted in any detectable CHOP expression; increase in CHOP or GRP78 protein, concentration dependence [4]: neither rofecoxib nor valdecoxib was able to stimulate any detectable increase
9 | NS(=O)(=O)c1ccc(-n2nc(C(F)(F)F)cc2-c2cc(Br)ccc2Br)cc1 [DBrC, 4-[5-(2,5-dibromophenyl)-3-(trifluoromethyl)-1H-pyrazol-1-yl]benzenesulfonamide] | – | – | – | relative ability to induce apoptosis / cell killing effect compared to DMC [8]: surprisingly potent cell killing effect

From patent publication US9486461B2, “Methods and compositions for inducing apoptosis by stimulating ER stress” (UNIVERSITY OF SOUTHERN CALIFORNIA, priority 2007, dated 2016)
